This series can be described thus: In vivo metabolism (pharmacokinetic) experiment in mice. Also noted: species or system male ICR mice. The following applies: male, ICR, mouse, po, 10 mg/kg, male ICR mice. In short, it runs like this: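 Fasted (12 h) male ICR mice received compound in 5% DMSO/5% Solutol HS15/90% saline at 2.5 mg/kg iv or 10 mg/kg po. Plasma and brain sampled 0.083–8 h (n=3 per time point) and analysed by LC-MS/MS. Parameters derived by non-compartmental analysis.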

This note sets out measurements from patent US20260174739A1 (priority 2022, published 2026).

Structures are written as SMILES.

`CCNC1(c2ccccc2)CCc2nc(N)sc2C1` (racemic) [rac-A5, N^6-ethyl-6-phenyl-4,5,6,7-tetrahydrobenzothiazole-2,6-diamine]: the bioavailability (oral 10 mg/kg vs iv 2.5 mg/kg, read-out: F (%)) was 63%. In addition, the AUC(0-inf) (oral 10 mg/kg, plasma, read-out: AUC0-inf(po)) was 1010 ng·h/mL. The Cmax (oral 10 mg/kg, plasma, read-out: Cmax (po)) turned out to be 250 ng/mL. Besides, the half-life (oral 10 mg/kg, plasma, read-out: T1/2 (po) (converted)) was 2.43 h.

A word on the Cmax: it is the highest concentration seen after dosing.
